{"source": "paper PMC11585924", "about": "“Direct measurements of neurosteroid binding to specific sites on GABAA receptors” (British journal of pharmacology, 2024)", "key": {"ELIC-α1GABAAR [1]": {"target": "T1, ELIC-α1GABAAR (Homo sapiens, UniProt P14867)", "T1 sequence (P14867 other isoform, or with tags, fused parts or gaps)": "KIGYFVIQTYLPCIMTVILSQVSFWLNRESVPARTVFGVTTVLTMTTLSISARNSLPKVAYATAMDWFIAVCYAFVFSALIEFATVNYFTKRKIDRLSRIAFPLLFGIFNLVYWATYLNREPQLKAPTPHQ", "T1 sequence (P0C7B7 1-198, further chain)": "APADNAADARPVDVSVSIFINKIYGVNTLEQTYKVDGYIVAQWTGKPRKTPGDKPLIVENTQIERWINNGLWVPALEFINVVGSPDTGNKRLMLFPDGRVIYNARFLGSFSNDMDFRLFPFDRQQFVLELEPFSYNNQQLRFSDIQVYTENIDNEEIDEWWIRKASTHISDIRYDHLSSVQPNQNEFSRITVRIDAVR", "type": "binding", "description": "One hundred microlitres of ELIC-α1GABAAR (0.3 μM) was transferred into a 50-μl window quartz cuvette maintained at 4°C, and NaI was added to the protein sample to a final concentration of 100 mM and incubated for 10 min. MQ290 was then added at a concentration of 3 μM for 3α-OH NS inhibition curves or 1 μM for 3β-OH NS inhibition curves and incubated for 30 min. One-microlitre aliquots of 3α-OH and 3β-OH NS from their corresponding stock solutions (prepared in Buffer A + 0.015% DDM) were added to achieve concentrations between 0.01 and 30 μM. The background emission spectra of ligands alone were obtained for each ligand concentration in the absence of protein and were subtracted from the protein-ligand emission spectra to yield background subtracted data. The MQ290 FRET spectra for different ligand concentrations were estimated using the method described above. The 370-nm intensities of the FRET spectra were plotted against ligand concentration and fitted to a four-parameter logistic curve to obtain IC50 data (GraphPad Software version 9.4.0, San Diego, CA). Ki values were calculated using the relationship: Ki=IC50/1+LT/Kd\nwhere LT is the concentration of MQ290 and Kd was determined from the MQ290 binding curve."}, "ELIC-α1GABAAR [2]": {"target": "T1, ELIC-α1GABAAR", "assay": "KK200 photolabelling competition, middle-down MS", "type": "binding", "details": "3 μM KK200, 30 μM competitor", "description": "The synthesis of the NS photolabelling reagent KK200 is detailed in previous reports ([W. W. L. Cheng et al., 2018]; [Jiang et al., 2016]). […] The samples were then irradiated in a quartz cuvette for 5 min, using a photoreactor emitting light at >320 nm ([Germann et al., 2021]). Sample preparation for tryptic digestion and analysis by LC–MS was performed as previously described ([Sugasawa et al., 2019]). Peptides were separated on a home-packed PLRP-S (Agilent, Santa Clara, CA, USA) column (10 cm × 75 μm, 300 Å) using a 135-min gradient from 10% to 90% acetonitrile and introduced to an Orbitrap-Elite mass spectrometer (Thermo Fisher Scientific, Waltham, MA, USA; RRID:SCR_020548) at 800 nl·min^−1 with a nanospray source. MS acquisition was set as an MS1 Orbitrap scan (resolution of 60,000) followed by top 20 MS2 Orbitrap scans (resolution of 15,000) using data-dependent acquisition and exclusion of singly charged precursors. Fragmentation was performed using high-energy dissociation with normalized energy of 35%. Analysis of data sets was performed using Xcalibur (Thermo Fisher Scientific, Waltham, MA, USA; RRID: SCR_014593) to manually search for TM1, TM2, TM3 or TM4 tryptic peptides with or without NS photolabelling modifications. Photolabelling efficiency was estimated by generating extracted chromatograms of unlabelled and labelled peptides, determining the area under the curve, and calculating the (area of labelled peptide/(area of unlabelled + area of labelled peptide). MS2 spectra of photolabelled TMD peptides were analysed by manual assignment of fragment ions with and without photolabelling modification."}}, "note": "“Also recorded” adds a separate entry of the source."}
{"smiles": "CC(=O)[C@H]1CC[C@H]2[C@@H]3CC[C@H]4C[C@@H](O)CC[C@]4(C)[C@H]3CC[C@]12C", "note": "[Epi-AlloP, epi-allopregnanolone]", "values": [{"measurement": "Hill slope", "setting": "ELIC-α1GABAAR [1]; 3β-OH NS, MQ290 1 μM", "result": "−0.68 ± 0.45"}, {"measurement": "mechanism of inhibition of MQ290 binding", "setting": "ELIC-α1GABAAR [1]; MQ290 binding curves with 3×Kd and 30 μM NS", "result": "allosteric mechanism of inhibition"}, {"measurement": "prevention of KK200 photolabelling of TM3 (Y309)", "setting": "ELIC-α1GABAAR [2]", "result": "not significantly different than control; also recorded: did not"}]}
